Measured values taken from patent US20210346461A1, “UTILIZATION OF ENDOGENOUS OUBAIN-REGULATING COMPOUNDS AND COMPOSITIONS THEREOF IN TREATMENT OF VASCULAR DISEASE” (priority 2020, published 2021).
Entries after “also recorded” stand apart in the source; their conditions may differ. Read-outs that look alike come from different tables or passages of the source.

How the values were obtained:
Cyclooxygenase (COX) = conditions: pharmacological blockade of COX; cited from earlier work
[1] = system: pregnant uterine arteries; experiment: PGI2 release/response in pregnant uterine arteries; assay type: cell-based
Source text: FIG. 1A is a graph of laboratory data indicating PGI2 response in pregnant uterine arteries at various levels of Ouabain, wherein GABA is provided and Taurine is not—both without and with the provision of AII.
FIG. 1B is a graph of laboratory data indicating PGI2 response in pregnant uterine arteries at various levels of Ouabain, wherein both GABA and Taurine are provided—without and with the provision of AII.
FIG. 3A is a graph of laboratory data indicating PGI2 response in pregnant uterine arteries at various levels of GABA, wherein neither Taurine nor Ouabain is provided—without and with the provision of AII.
FIGS. 4A and 4B are graphs of laboratory data illustrating PGI2 response to taurine levels, GABA levels, and the provision of AII in pregnant uterine vessels with lower and higher Ouabain conditions, respectively.
FIGS. 5B is a graph of laboratory data illustrating PGI2 response in pregnant uterine arteries to the provision of various combinations of GABA, AII, and bicuculine.
(§1) FIG. 6 is a graph illustrating changes in PGI2 response versus basal levels, in both pregnant uterine vessels and pregnant systemic vessels, when the endothelium is removed.

[2] = cited from earlier work
[3] = system: pregnant systemic arteries; experiment: PGI2 release/response in pregnant systemic arteries; assay type: cell-based
Source text: FIG. 3B is a graph of laboratory data indicating PGI2 response in pregnant systemic arteries at various levels of GABA, wherein neither Taurine nor Ouabain is provided—without and with the provision of AII.
FIGS. 5A is a graph of laboratory data illustrating PGI2 response in pregnant systemic arteries to the provision of various combinations of GABA, AII, and bicuculine.
as §1

[4] = system: intact nonpregnant systemic vessels; experiment: PGI2 response in intact nonpregnant systemic vessels (GABA dose response curves); assay type: cell-based, sheep; conditions: for PGI2 levels on addition of Nanomolar Ouabain: most concentrations of GABA
Source text: FIG. 2A is a graph of laboratory data indicating PGI2 response in intact nonpregnant systemic vessels at various levels of GABA, wherein neither Taurine nor Ouabain is provided without and with the provision of AII.
FIG. 2B is a graph of laboratory data indicating PGI2 response in intact nonpregnant systemic vessels at various levels of GABA, wherein neither Taurine nor AII is provided—without and with the provision of Ouabain.
FIG. 2C is a graph of laboratory data indicating PGI2 response in intact nonpregnant systemic vessels at various levels of GABA, wherein AII is provided and Taurine is not—without and with the provision of Ouabain.
In FIGS. 2A-2C, GABA dose response curves of systemic vessels in 18 day postpartum sheep are provided. These vessels are believed to be representative of non-pregnant normotensive systemic vessels. […] Accordingly, it appears that at least one of Taurine or EO (or the like) may be needed to up-regulate the GABA-a receptor to augment PGI2 levels in the presence of nanomolar ouabain, or may at least be substantially helpful to increase PGI2 levels.

## CC(=O)Oc1ccccc1C(=O)O [aspirin]
Cyclooxygenase (COX)
  resting blood pressure: does not substantially affect resting blood pressure

## NCCCC(=O)O [GABA]
[1]; FIG. 4A, low levels of taurine and low Ouabain
  PGI2 release with GABA and AII: PGI2 release increased
[1]; FIG. 5B col. 2, GABA alone, no AII
  PGI2 release on addition of GABA: insignificant effect on PGI2 release
[1]; together with AII
  PGI2 release on addition of GABA: increase PGI2; also recorded: increased PGI2 release
[2]; eHTN humans
  blood pressure: lower blood pressure
[2]; normotensive patients
  blood pressure: no effect to reduce blood pressure
[3]; absence of AII
  PGI2 release on exposure to GABA: increased PGI2 release; also recorded: responded to make PGI2
[4]; FIG. 2A/2B, 18 day postpartum sheep, no Ouabain, no Taurine
  PGI2 response to GABA: no PGI2 response; also recorded: did not release significant PGI2

## NCCS(=O)(=O)O [Taurine, 2-amino-ethane sulfonic acid]
[1]; FIG. 1A vs 1B, regardless of AII presence
  overall PGI2 release with vs without Taurine: overall PGI2 release appears higher without Taurine

## C[C@@H]1O[C@@H](O[C@H]2C[C@@H](O)[C@]3(CO)[C@H]4[C@H](O)C[C@]5(C)[C@@H](C6=CC(=O)OC6)CC[C@]5(O)[C@@H]4CC[C@]3(O)C2)[C@H](O)[C@H](O)[C@H]1O [Ouabain]
[1]; FIGS. 4A/4B, Ouabain from −10M to −9M, low taurine, GABA approx. −7M
  PGI2 release with increase in Ouabain: higher PGI2 release
[4]; FIG. 2B, without AII, no Taurine
  PGI2 levels on addition of Nanomolar Ouabain: significant increase in PGI2 levels
[4]; FIG. 2C, with AII, no Taurine
  PGI2 levels on addition of Nanomolar Ouabain: significant increase in PGI2 levels

## NCC(CP(=O)(O)O)c1ccc(Cl)cc1 (stereo not shown) [phaclofen]
[1]; experiments similar to FIGS. 5A/5B in pregnant vessels, data not shown
  PGI2 release on GABA-b receptor blockade: did not affect PGI2 release

## CN1CCc2cc3c(cc2[C@H]1[C@@H]1OC(=O)c2c1ccc1c2OCO1)OCO3 [bicuculine]
[1]; FIG. 5B, also when additional GABA was added (col. 5)
  PGI2 release on blocking GABA-a receptors: substantially reduced PGI2 release
[3]; FIG. 5A
  PGI2 release on blocking GABA-a receptors: reduced PGI2 release

## Angiotensin II [AII]
[1]; FIG. 1A, GABA provided, without taurine, various levels of Ouabain
  effect of presence or absence of AII on PGI2 release: negligible effect on PGI2 release
[1]; FIG. 3A, GABA concentrations of −7M, −6M, −5M
  PGI2 release difference responsive to presence or absence of AII: no significant PGI2 release difference
[1]; FIG. 3A, most levels of GABA, no Taurine, no Ouabain
  PGI2 release with AII vs without AII: more PGI2 is released
[1]; FIG. 5B col. 4, bicuculine and GABA present
  PGI2 release on further addition of AII: even further decreased PGI2
[1]; FIG. 6, endothelium removed
  PGI2 release in the presence of AII: reduced
[3]; FIG. 3B, various GABA levels, no Taurine, no Ouabain, compared with uterine circuit
  relationship between PGI2 release and AII presence: substantially inverted
[3]; FIG. 6, endothelium removed
  PGI2 release in the presence of AII: increased
[4]; FIG. 2A, exposed to GABA, without Taurine or EO
  PGI2 formation by presence or absence of Angiotensin II: no significant PGI2 formation
[4]; FIG. 2B vs 2C, in the presence of Ouabain, especially at higher GABA
  PGI2 release on addition of AII: substantially more PGI2 release

## COc1ccc2c(c1)c(CC(=O)O)c(C)n2C(=O)c1ccc(Cl)cc1 [indomethacin]
Cyclooxygenase (COX)
  resting blood pressure: does not substantially affect resting blood pressure
